In patent US9193697B2, “Oxazole derivatives useful as modulators of FAAH” (MERCK SHARP & DOHME CORP., priority 2010, dated 2015):

Legend:
[1] = target: T1, human FAAH (Fatty Acid Amide Hydrolase) (Homo sapiens (Human), UniProt O00519); test: FAAH inhibition, human FAAH CHO whole cell format; type: cell-based
Description: (§1) To assist in assay development stable cell lines for human, murine and rat full length FAAH were developed. […] The full length FAAH was subcloned into the mammalian expression vector, pcDEF.neo, using XbaI and EcoRI restriction sites and used for stable cell line generation.
(§2) The full length murine FAAH was subcloned into the mammalian expression vector, pcDEFneo using either EcoRI (murine) or KpnI and EcoRI (rat) restriction sites. Chinese hamster ovary cells (CHO) were transfected following manufacturers protocol (AMAXA). Forty eight hours post transfection, cells were trypsinized and transferred to 96 well plates in Iscove's DMEM media supplemented with 2 mM Glutamine, 10% fetal calf serum, 1 mg/ml geneticin and HT Supplement (0.1 mM sodium hypoxanthine, 0.016 mM thymidine) in order to isolate single clones. […] Following removal of tissue culture media cells were dislodged following addition of Cellstripper (Mediatech, Inc. Manassas, Va.) and transferred to 96 well black clear bottom assay plate, centrifuged at 1,000 rpm for 3 mins and media removed and replaced with assay buffer (50 mM Tris pH8.0, 1 mM EDTA, 0.1% fatty acid free BSA). The reaction was initiated by addition of fluorescent substrate, AMC Arachidonoyl Amide (Cayman Chemical, Ann Arbor, Mich.) to 1 μM and reaction allowed to proceed for 2 hours at room temperature. Release of fluorescence was monitored in a CytoFluor Multiplate Reader.
(§3) Assays are performed on either cell lysate or microsome fractions prepared as described or in whole cell format employing either the fluorescent substrate AAMCA (Cayman chemical, Ann Arbor, Mich.,) or ^3H-anandamide ([ETHANOLAMINE-1-3H] American Radiolabeled Chemicals; 1 mCi/ml). […] AAMCA substrate was used to achieve a final concentration of 1 μM and reaction allowed to proceed at room temperature for 1-3 hours. […] Whole cell assay is conducted with cells harvested after rinsing tissue culture flasks three times with Ca^++Mg^++ free PBS, incubating for 10 min in Enzyme free dissociation media and centrifuging for 5 minutes at 1,000 rpm in table top centrifuge. Cells are resuspended in assay buffer at desired cell number in (4×10^4 cells/assay in 96-well format; 1×10^4 cells/assay in 384-well format) and assayed as described.

[2] = target: T1, human FAAH (Fatty Acid Amide Hydrolase); test: FAAH inhibition, human FAAH CHO cell lysate (AAMCA fluorescence); type: biochemical
Description: as §1, §2
CHO cells expressing FAAH were used to prepare either crude cell lysate or microsome fractions. To harvest cells, tissue culture media was decanted, the monolayer washed three times with Ca^++Mg^++ free PBS and cells recovered after 15 min in enzyme free dissociation media (Millipore Corp, Billerica, Mass.). Cells were collected by centrifuging at 2000 rpm for 15 min, and the cell pellet re-suspended with 50 mM HEPES (pH 7.4) containing 1 mM EDTA and the protease inhibitors aprotinin (1 mg/ml) and leupeptin (100 μM). The suspension was sonicated at 4° C. and the cell lysate recovered after centrifuging at 12,000×g (14,600 rpm, SS34 rotor) for 20 min at 4° C. to form a crude pellet of cell debris, nuclei, peroxisomes, lysosomes, and mitochondria; the supernatant or cell lysate was used for FAAH enzyme assay. In some eases, microsomes fractions enriched in FAAH were prepared by centrifuging the cell lysate further at 27,000 rpm (100,000×g) in SW28 rotor for 50 minutes at 4° C. The pellet containing FAAH-enriched microsomes was re-suspend in 50 mM HEPES, (pH 7.4) 1 mM EDTA, and any remaining DNA sheared by passage of material through a 23 gauge needle and aliquots of enzyme were store at −80° C. prior to use.
as §3
Alternatively, assays are performed using anandamide [ethanolamine 1-^3H] (specific activity of 10 Ci/mmol) diluted with cold anandamide to achieve a final assay concentration of 1 μM anandamide (˜50,000 cpm). Enzyme (CHO cell lysate, brain or liver homogenate) is incubated in assay buffer (50 mM Phosphate, pH 8.0, 1 mM EDTA, 200 mM KCl, 0.2% glycerol, 0.1% fatty acid free BSA) with inhibitor at 25° C. for 30 minutes.

T1 sequence (O00519 whole entry): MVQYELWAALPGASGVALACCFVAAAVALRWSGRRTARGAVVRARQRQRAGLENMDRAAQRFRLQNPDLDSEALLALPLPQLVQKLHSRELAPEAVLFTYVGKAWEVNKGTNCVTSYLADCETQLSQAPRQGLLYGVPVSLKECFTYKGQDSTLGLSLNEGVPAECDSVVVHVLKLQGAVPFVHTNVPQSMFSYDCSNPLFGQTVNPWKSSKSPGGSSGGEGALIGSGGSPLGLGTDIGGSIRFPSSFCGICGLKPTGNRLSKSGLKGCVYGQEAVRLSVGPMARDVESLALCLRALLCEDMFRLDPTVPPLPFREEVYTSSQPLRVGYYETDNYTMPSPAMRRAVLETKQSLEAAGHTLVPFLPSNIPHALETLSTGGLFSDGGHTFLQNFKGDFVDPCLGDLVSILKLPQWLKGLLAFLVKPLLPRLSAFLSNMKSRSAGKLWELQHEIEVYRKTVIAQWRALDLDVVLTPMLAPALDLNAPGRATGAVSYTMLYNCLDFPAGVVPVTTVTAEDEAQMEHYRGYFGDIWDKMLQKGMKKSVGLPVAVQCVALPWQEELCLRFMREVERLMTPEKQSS

Compound | IC50 [1] [nM] | IC50 [2] [nM]
C[S+]([O-])c1ccc(-c2nc(C3CCOCC3)oc2Sc2ccc(Cl)cn2)cn1 (stereo not shown) [Example A7.2, 5-chloro-2-({4-[6-(methylsulfinyl)pyridin-3-yl]-2-(tetrahydro-2H-pyran-4-yl)-1,3-oxazol-5-yl}sulfanyl)pyridine] | 935 | 293
C[S+]([O-])c1ccc(-c2nc(C3CCN(C(=O)OC(C)(C)C)CC3)oc2Sc2ccc(Cl)cn2)cc1 (stereo not shown) [Example A7.13, tert-butyl 4-{5-[(5-chloropyridin-2-yl)sulfanyl]-4-[4-(methylsulfinyl)phenyl]-1,3-oxazol-2-yl}piperidine-1-carboxylate] | 771 | 67.5
CC(C)(C)OC(=O)N1CCC(c2nc(-c3ccc(S(C)(=O)=O)cc3)c(Sc3ccc(Cl)cn3)o2)CC1 [Example A7.14, tert-butyl 4-{5-[(5-chloropyridin-2-yl)sulfanyl]-4-[4-(methylsulfonyl)phenyl]-1,3-oxazol-2-yl}piperidine-1-carboxylate] | 443 | 65.3
C[S+]([O-])c1ccc(-c2nc(C3CCNCC3)oc2Sc2ccc(Cl)cn2)cc1 (stereo not shown) [Example A7.15, 4-{5-[(5-Chloropyridin-2-yl)sulfanyl]-4-[4-(methylsulfinyl)phenyl]-1,3-oxazol-2-yl}piperidinium chloride] | ≥ 10000 | 1420
CS(=O)(=O)c1ccc(-c2nc(C3CCNCC3)oc2Sc2ccc(Cl)cn2)cc1 [Example A7.16, 5-chloro-2-({4-[4-(methylsulfonyl)phenyl]-2-(piperidin-4-yl)-1,3-oxazol-5-yl}sulfanyl)pyridine] | ≥ 10000 | 925
COC(=O)N1CCC(c2nc(-c3ccc([S+](C)[O-])cc3)c(Sc3ccc(Cl)cn3)o2)CC1 (stereo not shown) [Example A7.17, methyl 4-{5-[(5-chloropyridin-2-yl)sulfanyl]-4-[4-(methylsulfinyl)phenyl]-1,3-oxazol-2-yl}piperidine-1-carboxylate] | 547 | 75.1
CC(=O)N1CCC(c2nc(-c3ccc([S+](C)[O-])cc3)c(Sc3ccc(Cl)cn3)o2)CC1 (stereo not shown) [Example A7.18, 1-(4-{5-[(5-Chloropyridin-2-yl)sulfanyl]-4-[4-(methylsulfinyl)phenyl]-1,3-oxazol-2-yl}piperidin-1-yl)ethanone] | 4420 | 839
C[S+]([O-])c1ccc(-c2nc(C3CCN(S(C)(=O)=O)CC3)oc2Sc2ccc(Cl)cn2)cc1 (stereo not shown) [Example A7.19, 5-chloro-2-({4-[4-(methylsulfinyl)phenyl]-2-[1-(methylsulfonyl)piperidin-4-yl]-1,3-oxazol-5-yl}sulfanyl)pyridine] | 3280 | 287
CN1CCC(c2nc(-c3ccc([S+](C)[O-])cc3)c(Sc3ccc(Cl)cn3)o2)CC1 (stereo not shown) [Example A7.20, 5-chloro-2-({2-(1-methylpiperidin-4-yl)-4-[4-(methylsulfinyl)phenyl]-1,3-oxazol-5-yl}sulfanyl)pyridine] | ≥ 10000 | 1700
C[S+]([O-])c1ccc(-c2nc(C3CCN(C(=O)Oc4ccccc4)CC3)oc2Sc2ccc(Cl)cn2)cc1 (stereo not shown) [Example A7.21, phenyl 4-{5-[(5-chloropyridin-2-yl)sulfanyl]-4-[4-(methylsulfinyl)phenyl]-1,3-oxazol-2-yl}piperidine-1-carboxylate] | 124 | 25.9
CC(C)OC(=O)N1CCC(c2nc(-c3ccc([S+](C)[O-])cc3)c(Sc3ccc(Cl)cn3)o2)CC1 (stereo not shown) [Example A7.22, propan-2-yl 4-{5-[(5-chloropyridin-2-yl)sulfanyl]-4-[4-(methylsulfinyl)phenyl]-1,3-oxazol-2-yl}piperidine-1-carboxylate] | 383 | 45.8
Clc1ccc(Sc2oc(C3CCOCC3)nc2-c2cnc3n2CCC3)cc1 [Example B5.25, 3-{5-[(4-chlorophenyl)sulfanyl]-2-(tetrahydro-2H-pyran-4-yl)-1,3-oxazol-4-yl}-6,7-dihydro-5H-pyrrolo[1,2-a]imidazole] | 205 | 
CN(C(=O)c1ccc(-c2nc(C3CCOCC3)oc2Sc2ccc(Cl)cc2)cc1)C1CCOC1 (stereo not shown) [Example B5.26, 4-{5-[(4-chlorophenyl)sulfanyl]-2-(tetrahydro-2H-pyran-4-yl)-1,3-oxazol-4-yl}-N-methyl-N-(tetrahydrofuran-3-yl)benzamide] | 506 | 
CN1CCN(c2ccc(-c3nc(C4CCOCC4)oc3Sc3ccc(Cl)cc3)cn2)CC1 [Example B5.27, 1-(5-{5-[(4-chlorophenyl)sulfanyl]-2-(tetrahydro-2H-pyran-4-yl)-1,3-oxazol-4-yl}pyridin-2-yl)-4-methylpiperazine] | 141 | 
Cc1nnc(-c2cccc(-c3nc(C4CCOCC4)oc3Sc3ccc(Cl)cc3)c2)o1 [Example B5.29, 2-(3-{5-[(4-chlorophenyl)sulfanyl]-2-(tetrahydro-2H-pyran-4-yl)-1,3-oxazol-4-yl}phenyl)-5-methyl-1,3,4-oxadiazole] | ≥ 10000 | 
O=C(c1ccc(-c2nc(C3CCOCC3)oc2Sc2ccc(Cl)cc2)cc1)N1CCSC1 [Example B5.31, (4-{5-{(4-chlorophenyl)sulfanyl]-2-(tetrahydro-2H-pyran-4-yl)-1,3-oxazol-4-yl}phenyl)(1,3-thiazolidin-3-yl)methanone] | 1340 | 
COC(=O)[C@H]1CC[C@H](c2nc(-c3ccc(C(C)(C)O)nc3)c(Sc3ccc(Cl)cc3)o2)CC1 [Example B5.33, methyl trans-4-{5-[(4-chlorophenyl)sulfanyl]-4-[6-(2-hydroxypropan-2-yl)pyridin-3-yl]-1,3-oxazol-2-yl}cyclohexanecarboxylate] | 9.5 | 
COC(=O)[C@H]1CC[C@@H](c2nc(-c3ccc(C(C)(C)O)nc3)c(Sc3ccc(Cl)cc3)o2)CC1 [Example B5.34, methyl cis-4-{5-[(4-chlorophenyl)sulfanyl]-4-[6-(2-hydroxypropan-2-yl)pyridin-3-yl]-1,3-oxazol-2-yl}cyclohexanecarboxylate] | 14.2 | 
CC(C)(O)c1ccc(-c2nc([C@H]3CC[C@H](CO)CC3)oc2Sc2ccc(Cl)cc2)cn1 [Example B5.35, 2-(5-{5-[(4-chlorophenyl)sulfanyl]-2-[trans-4-(hydroxymethyl)cyclohexyl]-1,3-oxazol-4-yl}pyridin-2-yl)propan-2-ol] | 9.06 | 
CC(C)(O)c1ccc(-c2nc([C@H]3CC[C@@H](CO)CC3)oc2Sc2ccc(Cl)cc2)cn1 [Example B5.36, 2-(5-{5-[(4-chlorophenyl)sulfanyl]-2-[cis-4-(hydroxymethyl)cyclohexyl]-1,3-oxazol-4-yl}pyridin-2-yl)propan-2-ol] | 63.8 | 
CC(O)(CO)c1ccc(-c2nc(C3CCOCC3)oc2Sc2ccc(Cl)cc2)cn1 (stereo not shown) [Example B5.37, 2-(5-{5-[(4-chlorophenyl)sulfanyl]-2-(tetrahydro-2H-pyran-4-yl)-1,3-oxazol-4-yl}pyridin-2-yl)propane-1,2-diol] | 308 | 
CC(C)(O)c1ccc(-c2nc([C@H]3CC[C@H](C(C)(C)O)CC3)oc2Sc2ccc(Cl)cc2)cn1 [Example B5.38, 2-(5-{5-[(4-chlorophenyl)sulfanyl]-2-[trans-4-(2-hydroxypropan-2-yl)cyclohexyl]-1,3-oxazol-4-yl}pyridin-2-yl)propan-2-ol] | 185 | 
CCNC(=O)[C@H]1CC[C@H](c2nc(-c3ccc(C(C)(C)O)nc3)c(Sc3ccc(Cl)cc3)o2)CC1 [Example B5.39, trans-4-{5-[(4-chlorophenyl)sulfanyl]-4-[6-(2-hydroxypropan-2-yl)pyridin-3-yl]-1,3-oxazol-2-yl}-N-ethylcyclohexanecarboxamide] | 26.2 | 
